This note sets out measurements from ChEMBL document CHEMBL1144536, “Ring substituent effects on biological activity of vinyl sulfones as inhibitors of HIV-1” (Bioorg Med Chem, 2007).

The nature of assay [1]: Cytotoxicity against HeLa H1-JC.37 cells by MTS assay. Type of assay: cell-based. As to conditions: Homo sapiens. A general note: Formazan colour is commonly taken as a measure of viable cells.
For assay [2], the target named is T1, Human immunodeficiency virus type 1 integrase (Human immunodeficiency virus 1, UniProt Q7ZJM1). The assay can be described thus: Inhibition of HIV1 integrase-mediated integration activity.
Assay [3] deals with T1, Human immunodeficiency virus type 1 integrase. The assay is described as follows: Inhibition of HIV1 integrase-mediated 3'-processing activity.
A short description of assay [4]: Selectivity ratio of EC50 for HIV1 to IC50 for HeLa H1-JC.37 cells. Type of assay: functional.
In assay [5] the test system is Human immunodeficiency virus 1. The assay is described as follows: Antiviral activity against HIV1 by focal infectivity assay. Type of assay: functional, organism-based.

As a reminder, the IC50 is the midpoint of a concentration-inhibition curve. A higher IC50 goes with a need for much substance. For orientation: EC50 means the midpoint of the concentration-response curve. Read a high EC50 as lower potency in that assay.

T1 sequence (Q7ZJM1 whole entry): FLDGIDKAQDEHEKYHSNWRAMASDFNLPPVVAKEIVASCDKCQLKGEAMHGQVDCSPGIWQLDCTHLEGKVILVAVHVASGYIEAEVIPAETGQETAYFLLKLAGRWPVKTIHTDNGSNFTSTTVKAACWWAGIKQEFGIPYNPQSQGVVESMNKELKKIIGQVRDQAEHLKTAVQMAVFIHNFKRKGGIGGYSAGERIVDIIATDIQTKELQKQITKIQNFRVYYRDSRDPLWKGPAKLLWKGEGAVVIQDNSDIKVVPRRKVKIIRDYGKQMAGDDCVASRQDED

As for `O=S(=O)(/C=C/c1ccccc1)CS(=O)(=O)/C=C/c1ccccc1`, the IC50 in assay [1] is 12 µM; in assay [2], over 100 µM; in assay [3] it was over 100 µM. The “Ratio IC50/EC50” value in assay [4] stood at 9.9. In addition, the response in assay [5] was half-maximal at 1.2 µM (EC50).

In the case of `O=S(=O)(/C=C/c1ccc2c(c1)OCCO2)CS(=O)(=O)/C=C/c1ccc2c(c1)OCCO2`, the IC50 in assay [2] and in assay [3] was over 100 µM in each case. The same compound returned an EC50 in assay [5] of over 10 µM.

Take `O=S(=O)(/C=C/c1ccc(OCc2ccccc2)c(OCc2ccccc2)c1)CS(=O)(=O)/C=C/c1ccc(OCc2ccccc2)c(OCc2ccccc2)c1`: the IC50 in assay [2] and in assay [3] was over 100 µM in each case. The compound further came in with an EC50 in assay [5] of over 10 µM.

Take `COc1cc(/C=C/S(=O)(=O)CS(=O)(=O)/C=C/c2cc(OC)c(OC)cc2[N+](=O)[O-])c([N+](=O)[O-])cc1OC`: the IC50 in assay [2] and in assay [3] was 500 µM in each case. The same compound displayed a concentration for a half-maximal effect (EC50) in assay [5] of over 10 µM.

Take `O=S(=O)(CCc1ccccc1)CS(=O)(=O)CCc1ccccc1`: the 50% inhibitory concentration (IC50) in assay [1] is over 150 µM; in assay [2], over 100 µM; in assay [3] it was over 100 µM. Also, the EC50 in assay [5] is over 10 µM.

As to `O=S(=O)(/C=C/c1ccc2[nH]ccc2c1)CS(=O)(=O)/C=C/c1ccc2[nH]ccc2c1`, the IC50 in assay [2] is 95 µM; in assay [3] it was over 100 µM. Also, in assay [5], the EC50 is over 10 µM.

Regarding `O=S(=O)(/C=C/c1cc(F)c(F)c(F)c1)CS(=O)(=O)/C=C/c1cc(F)c(F)c(F)c1`, the IC50 in assay [1] is 7.8 µM; in assay [2] it was over 100 µM; in assay [3] it was over 100 µM. Also, the “Ratio IC50/EC50” value in assay [4] came out at 3.9. In assay [5], this compound returned a half-maximal effective concentration (EC50) of 2 µM.

For the compound `O=C(O)c1ccc(/C=C/S(=O)(=O)CS(=O)(=O)/C=C/c2ccc(C(=O)O)cc2)cc1`, the IC50 in assay [2] and in assay [3] was 33 µM in each case. The compound further had an EC50 in assay [5] of over 10 µM.

For the compound `COc1cc(OC)c(OC)cc1/C=C/S(=O)(=O)CS(=O)(=O)/C=C/c1cc(OC)c(OC)cc1OC`, the IC50 in assay [2] and in assay [3] was over 1000 µM throughout. For the same compound, the EC50 in assay [5] was over 10 µM.

As to `O=S(=O)(/C=C/c1ccccc1OCc1ccccc1)CS(=O)(=O)/C=C/c1ccccc1OCc1ccccc1`, the IC50 in assay [2] and in assay [3] was over 100 µM in each case. Further, the 50% effective concentration (EC50) in assay [5] was over 10 µM.

On to `O=S(=O)(CCc1ccc(O)c(O)c1)CS(=O)(=O)CCc1ccc(O)c(O)c1`, for which the IC50 stood at 170 µM in assay [1], 17 µM in assay [2] and 40 µM in assay [3]. In addition, the “Ratio IC50/EC50” value in assay [4] was 27. Further, the EC50 in assay [5] came to 6.2 µM.

Turning to `COc1cc(/C=C/S(=O)(=O)CS(=O)(=O)/C=C/c2cc(Br)c(OC)c(OC)c2)cc(Br)c1OC`, the IC50 in assay [2] and in assay [3] was over 100 µM throughout. For the same compound, the EC50 in assay [5] was over 10 µM.

As to `COc1ccc(Br)cc1/C=C/S(=O)(=O)CS(=O)(=O)/C=C/c1cc(Br)ccc1OC`, the IC50 in assay [2] and in assay [3] was over 100 µM each time. Also, the EC50 in assay [5] is over 10 µM.

`O=S(=O)(/C=C/c1cc(OCc2ccccc2)c(OCc2ccccc2)c(OCc2ccccc2)c1)CS(=O)(=O)/C=C/c1cc(OCc2ccccc2)c(OCc2ccccc2)c(OCc2ccccc2)c1`: the IC50 in assay [2] and in assay [3] was over 100 µM throughout. Moreover, the concentration giving a half-maximal response (EC50) in assay [5] was over 10 µM.

`O=S(=O)(CCc1cc(F)c(F)c(F)c1)CS(=O)(=O)CCc1cc(F)c(F)c(F)c1`: the IC50 was 110 µM in assay [1], 333 µM in assay [2] and 900 µM in assay [3]. Also, the EC50 in assay [5] was over 10 µM.

Regarding `O=S(=O)(/C=C/c1cc(Cl)ccc1Cl)CS(=O)(=O)/C=C/c1cc(Cl)ccc1Cl`, the IC50 in assay [1] was 2.6 µM; in assay [2], over 100 µM; in assay [3], over 100 µM. The “Ratio IC50/EC50” value in assay [4] is on record as 0.77. For the same compound, in assay [5], a half-maximal effect (EC50) was put at 3.4 µM.

For the compound `O=S(=O)(/C=C/c1cccc(Br)n1)CS(=O)(=O)/C=C/c1cccc(Br)n1`, the values for the 50% inhibitory concentration (IC50) in assay [2] and in assay [3] were 900 µM and over 1000 µM, respectively. Moreover, the EC50 in assay [5] is over 10 µM.

Turning to `COc1cc(Br)c(/C=C/S(=O)(=O)CS(=O)(=O)/C=C/c2cc(OC)c(OC)cc2Br)cc1OC`, the IC50 in assay [2] was 500 µM; in assay [3] it was 850 µM. The concentration for a half-maximal effect (EC50) in assay [5] is over 10 µM.
